pIC50, pKd, pKi: −log10 of the molar value. Like-named read-outs stand apart in the source and are kept apart here. One block for each compound: values may come before it.
Key:
[1] = In vitro stability in formulation solution (saline); assay type: physicochemical; conditions: up to 60 or 120 min
[2] = In vitro stability in NHP serum; assay type: in vitro ADME; conditions: up to 60 or 120 min
[3] = Radiometabolic analysis in rats; assay type: in vivo; conditions: rat, 30 min post administration
Procedure: [^18F]7 was injected via the tail vein of SD rats and then euthanized 30 min after administration of [^18F]7 (0.1 mCi per rat, n = 2). The brain was collected, homogenized, and cold acetonitrile (0.2 mL) was added then centrifuged (14 000g, 5 min) at 4 °C. This step was repeated until there was no obvious precipitation formed. Then the supernatant was injected into a radioHPLC with unlabeled 7 as the internal standard. Both [^18F]7 and its ^18F-metabolites were collected by HPLC and then measured by γ counter. The same procedure was conducted for plasma.

[4] = In vitro stability in mouse serum; assay type: in vitro ADME; conditions: up to 60 or 120 min
[5] = In vitro stability in rat serum; assay type: in vitro ADME; conditions: up to 60 or 120 min
[6] = In vitro stability in human serum; assay type: in vitro ADME; conditions: up to 60 or 120 min
PDE7 [7] = experiment: PET imaging in rat brains; assay type: in vivo
Procedure: PET imaging was carried out as previously reported.[26] [^18F]7 (30–40 uCi) was administered to SD rats via the tail vein, and dynamic scans were conducted with a G8 scanner (Sofie) for 1 h (n = 4). In blocking studies, elacridar (5 mg/kg) was administered intravenously at 20 min before the administration of [^18F]7, and P7–2104 or 7 (3 mg/kg) was administered intravenously at 10 min before the administration of [^18F]7 (n = 3). PET data were analyzed with PMOD (PMOD Technologies LLC, Switzerland).

[8] = Ex vivo whole-body biodistribution in CD-1 mice; set-up: species or system mouse
Procedure: Whole-Body biodistribution was carried out as previously reported.[27],[28] [^18F]7 (10 μCi/100 μL) was administered intravenously to CD-1 mice, which were sacrificed at 5, 15, 30, and 60 min after administration of [^18F]7 (n = 3). Tissues of interest were collected, weighted, and measured by a γ counter.

PDE7 [9] = experiment: Phosphodiesterase 7 inhibition assay (Eurofins); assay type: biochemical; conditions: for Inhibiton at 0.5 nM: PDE7, 0.5 nM
Procedure: (§1) The inhibition assay of phosphodiesterase 7 with compounds 1–7 was performed by Eurofins. The inhibition assay of other phosphodiesterases with compound 7 was performed by Reaction Biology Corporation at a concentration of 3 μM.

PDE7 [10] = system: PDE7; set-up: method as in PMID 26330158; conditions: read-out: PDE7 inhibitory potency IC50; cited from earlier work
PDE7 [11] = biological target: PDE7; set-up: method as in PMID 32246980; conditions: read-out: binding affinity KD toward PDE7; cited from earlier work
[12] = set-up: method as in PMID 32246980; conditions: cited from earlier work
66 major CNS targets = experiment: Off-target binding profile against 66 major CNS targets; conditions: 10 μM; except 5-HT2B and Sigma1
PDE4 = experiment: Inhibition assay of other phosphodiesterases: PDE4; assay type: biochemical; conditions: 3 μM
Procedure: as §1

other PDEs subfamilies = experiment: Inhibition assay of other phosphodiesterases (Reaction Biology Corporation); assay type: biochemical; conditions: 3 μM; other than PDE4
Procedure: as §1

PDE4B = biological target: T1, PDE4B (Homo sapiens, UniProt Q07343); experiment: Inhibition assay of other phosphodiesterases: PDE4B; assay type: biochemical
T1 construct: purchased Reaction Biology Corporation
T1 sequence (Q07343 whole entry, species assumed): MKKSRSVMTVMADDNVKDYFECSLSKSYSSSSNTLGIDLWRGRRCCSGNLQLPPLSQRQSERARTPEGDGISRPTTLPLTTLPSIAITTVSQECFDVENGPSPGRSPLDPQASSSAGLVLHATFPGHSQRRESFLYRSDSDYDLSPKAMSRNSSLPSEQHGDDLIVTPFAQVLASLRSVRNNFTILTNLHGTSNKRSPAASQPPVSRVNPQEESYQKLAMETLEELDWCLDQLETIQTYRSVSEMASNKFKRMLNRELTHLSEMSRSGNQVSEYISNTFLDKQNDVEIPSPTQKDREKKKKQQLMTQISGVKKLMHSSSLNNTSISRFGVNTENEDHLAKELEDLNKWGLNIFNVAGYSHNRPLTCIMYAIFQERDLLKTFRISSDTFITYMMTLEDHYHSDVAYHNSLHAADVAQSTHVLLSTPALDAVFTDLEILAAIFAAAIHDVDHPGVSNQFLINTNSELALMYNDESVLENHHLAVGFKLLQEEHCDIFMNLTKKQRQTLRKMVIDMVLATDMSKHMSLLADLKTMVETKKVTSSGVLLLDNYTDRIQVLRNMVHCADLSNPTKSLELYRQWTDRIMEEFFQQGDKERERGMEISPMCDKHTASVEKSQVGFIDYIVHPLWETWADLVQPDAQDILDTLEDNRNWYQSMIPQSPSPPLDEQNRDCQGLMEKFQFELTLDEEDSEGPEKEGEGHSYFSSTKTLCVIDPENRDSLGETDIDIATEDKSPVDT
Procedure: as §1

PDE7 [13] = experiment: In vitro autoradiography in rat brain sections; assay type: binding; conditions: blocker 10 μM
Procedure: Autoradiography studies were conducted as previously reported.[24],[25] In brief, SD rat brain sections ([…]) were preincubated with buffer (Tris-HCl, 50 mM) at ambient temperature for 20 min and then incubated with [^18F]7 (1 μCi/mL) for 30 min. After that, the brain sections were washed with cold buffer and water, dried with cold air, and exposed to the phosphor plate (12 h). In blocking studies, brain sections were incubated with [^18F]7 in the presence of compound 7 (10 μM) or P7–2104 (10 μM).

5-HT2B = 5-HT2B (Homo sapiens, UniProt P41595); experiment: Off-target binding: 5-HT2B
Chain of 5-HT2B (P41595 whole entry, species assumed): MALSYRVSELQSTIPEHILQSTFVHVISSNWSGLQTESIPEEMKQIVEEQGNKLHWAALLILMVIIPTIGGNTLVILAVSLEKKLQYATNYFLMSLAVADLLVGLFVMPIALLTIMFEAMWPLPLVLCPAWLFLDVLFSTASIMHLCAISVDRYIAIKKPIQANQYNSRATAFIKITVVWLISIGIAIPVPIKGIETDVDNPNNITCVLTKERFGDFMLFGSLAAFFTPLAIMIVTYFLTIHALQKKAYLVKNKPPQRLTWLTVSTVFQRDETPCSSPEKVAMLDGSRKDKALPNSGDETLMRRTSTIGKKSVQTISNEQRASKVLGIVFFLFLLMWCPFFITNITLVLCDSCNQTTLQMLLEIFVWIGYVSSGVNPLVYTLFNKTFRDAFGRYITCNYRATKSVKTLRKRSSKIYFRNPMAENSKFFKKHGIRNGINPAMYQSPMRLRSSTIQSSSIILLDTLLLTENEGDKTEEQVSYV

[14] = Log D, shake flask method; assay type: physicochemical; conditions: n-octanol/PBS
Procedure: PBS buffer (0.01 M) and n-octanol were presaturated with each other overnight before the measurement. The PDE7 ligand [^18F]7, PBS (0.01 M, 5 mL), and n-octanol (5 mL) were combined and vortexed for 3 min, and then centrifuged (∼14 000 rpm, 5 min). The PBS fraction and n-octanol fraction were weighted and counted by γ counter. The log D was calculated as log[(radioactivityn-octanol/weightn-octanol)/(radioactivityPBS/weightPBS)].

Sigma1 = Sigma1 (Homo sapiens, UniProt Q99720); experiment: Off-target binding: Sigma1
Chain of Sigma1 (Q99720 whole entry): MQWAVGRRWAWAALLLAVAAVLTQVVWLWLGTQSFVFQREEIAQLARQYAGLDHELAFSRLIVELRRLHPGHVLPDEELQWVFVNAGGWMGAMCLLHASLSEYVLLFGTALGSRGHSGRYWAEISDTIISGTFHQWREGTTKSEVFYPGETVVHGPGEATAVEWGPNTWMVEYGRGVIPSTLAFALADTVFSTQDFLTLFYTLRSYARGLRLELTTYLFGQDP

Inhibiton at 0.5 nM (PDE7 [9]): -10%
Structure (SMILES): CN(C)C(=O)c1c(F)cccc1Oc1ccc(Cl)c2c1C1(CCCCC1)OC(=O)N2 [Compound 4, 2-((8-Chloro-2-oxo-1,2-dihydrospiro[benzo[d][1,3]oxazine-4,1′-cyclohexan]-5-yl)oxy)-6-fluoro-N,N-dimethylbenzamide]

Inhibiton at 0.5 nM (PDE7 [9]): 6%
Structure (SMILES): CN(C)C(=O)c1ccc(F)cc1Oc1ccc(Cl)c2c1C1(CCCCC1)OC(=O)N2 [Compound 2, 2-((8-Chloro-2-oxo-1,2-dihydrospiro[benzo[d][1,3]oxazine-4,1′-cyclohexan]-5-yl)oxy)-4-fluoro-N,N-dimethylbenzamide]

pIC50 (PDE7 [9]): 9.39 | Inhibiton at 0.5 nM (PDE7 [9]): 50%
Structure (SMILES): CN(C)C(=O)c1cccc(F)c1Oc1ccc(Cl)c2c1C1(CCCCC1)OC(=O)N2 [Compound 1, 2-((8-Chloro-2-oxo-1,2-dihydrospiro[benzo[d][1,3]oxazine-4,1′-cyclohexan]-5-yl)oxy)-3-fluoro-N,N-dimethylbenzamide]
pKd (PDE7 [11]): 9.10 | brain uptake [12]: 0.25 %ID/g

Inhibiton at 0.5 nM (PDE7 [9]): -17%
Structure (SMILES): CN(C)C(=O)c1cc(F)ccc1Oc1ccc(Cl)c2c1C1(CCCCC1)OC(=O)N2 [Compound 3, 2-((8-Chloro-2-oxo-1,2-dihydrospiro[benzo[d][1,3]oxazine-4,1′-cyclohexan]-5-yl)oxy)-5-fluoro-N,N-dimethylbenzamide]

Second part, the compound before the results:

Structure (SMILES): O=C1Nc2c(Cl)ccc(Oc3c(F)cccc3C(=O)N3CC([18F])C3)c2C2(CCCCC2)O1 [[^18F]7]
in vitro stability in saline [1]: no obvious decomposition or metabolite was observed | in vitro stability in NHP serum [2]: no obvious decomposition or metabolite was observed | intact parent fraction in brain [3]: 92% | intact parent fraction in plasma [3]: 67% | in vitro stability in mouse serum [4]: no obvious decomposition or metabolite was observed | in vitro stability in rat serum [5]: no obvious decomposition or metabolite was observed | in vitro stability in human serum [6]: no obvious decomposition or metabolite was observed | SUVpeak in striatum after elacridar (PDE7 [7]; SD rats, elacridar 5 mg/kg i.v. 20 min before tracer): 2.8 | SUVpeak in striatum, baseline (PDE7 [7]; SD rats, i.v., baseline): 0.35 | increase of SUVpeak in striatum by elacridar (PDE7 [7]; elacridar 5 mg/kg vs baseline): 700% | bone uptake at 5 min ([8]; 5 min): 1.6 %ID/g | bone uptake at 60 min ([8]; 60 min): 0.3 %ID/g | initial radioactivity in liver, small intestine, kidney, pancreas, lung, and heart ([8]; i.v., initially): > 5 %ID/g | brain uptake (biodistribution) ([8]; initially): low uptake | pIC50 (PDE7 [9]): 9.74 | selectivity for PDE7 over other PDE subfamilies (PDE7 [9]): > 400 fold

Structure (SMILES): CN(C(=O)c1cccc(F)c1Oc1ccc(Cl)c2c1C1(CCCCC1)OC(=O)N2)C1CC1 [Compound 6, 2-((8-Chloro-2-oxo-1,2-dihydrospiro[benzo[d][1,3]oxazine-4,1′-cyclohexan]-5-yl)oxy)-N-cyclopropyl-3-fluoro-N-methylbenzamide]
Inhibiton at 0.5 nM (PDE7 [9]): -13%

Structure (SMILES): O=C1Nc2c(Cl)ccc(OCC[18F])c2C2(CCCCC2)N1 [[^18F]MICA-003]
pIC50 (PDE7 [10]): 7.77

Structure (SMILES): O=C1Nc2c(Cl)ccc(Oc3c(F)cccc3C(=O)N3CCC3)c2C2(CCCCC2)O1 [Compound 5, 5-(2-(Azetidine-1-carbonyl)-6-fluorophenoxy)-8-chlorospiro[benzo[d][1,3]oxazine-4,1′-cyclohexan]-2(1H)-one]
pIC50 (PDE7 [9]): 10.40 | Inhibiton at 0.5 nM (PDE7 [9]): 68%

Structure (SMILES): O=C1Nc2c(Cl)ccc(Oc3c(F)cccc3C(=O)N3CC(F)C3)c2C2(CCCCC2)O1 [Compound 7, 8-Chloro-5-(2-fluoro-6-(3-fluoroazetidine-1-carbonyl)phenoxy)spiro[benzo[d][1,3]oxazine-4,1′-cyclohexan]-2(1H)-one]
off-target binding (>50% inhibition) against 66 major CNS targets (66 major CNS targets): No significant off-target binding | activity against PDE4 (PDE4): moderately active | inhibition of other PDEs subfamilies (other PDEs subfamilies): < 50 % inhibition | pIC50 (PDE4B): 7.11 | PDE4B inhibition (PDE4B; 3 μM): 92 % inhibition | reduction of [18F]7 radioactivity signal in striatum (autoradiography blocking) (PDE7 [13]): 56% | pKi (5-HT2B): 5.47 | reduction of [18F]7 SUVpeak in striatum (PET blocking) (PDE7 [7]; blocker 3 mg/kg i.v. with elacridar 5 mg/kg, SD rats): 51% | logD [14]: 3.27 | pIC50 (PDE7 [9]): 9.74 | selectivity for PDE7 over other PDE subfamilies (PDE7 [9]): > 400 fold | Inhibiton at 0.5 nM (PDE7 [9]): 51% | pKi (Sigma1): 5.13
